How the values were obtained:
[1] = system: serum cytokines (IL-1α, IL-4, IFN-γ, IL-6); assay: Serum cytokine measurement (MILLIPLEX/Luminex) in ConA immune-mediated hepatitis mice; format: in vivo, C57Bl/6 mice; conditions: oral, daily for 5 days, ConA-injected mice; for serum IL-1a: control group A 206.5; for serum IL-6: control group A 11768
Procedure: Male C57Bl/6 mice (12 weeks old) were obtained from Harlan Laboratories (Jerusalem, Israel) and maintained in the Animal Core of the Hadassah-Hebrew University Medical School. Mice were kept at 11-12 weeks of age and maintained in the Animal Core of the Hadassah-Hebrew University Medical School. All mice were administered standard laboratory chow and water ad libitum and kept in a 12-hour light/dark cycle. All experiments were performed in accordance with the guidelines of the Hebrew University-Hadassah Institutional Committee for Care and Use of Laboratory Animals (IACUC protocol number: MD-16-14986-3).
Four groups of mice (n=4) were studied. Mice in all groups were injected with Concanavalin A (Con A, […]). Mice in control group A were treated with PBS. Mice in group B were orally administered 6 mg of GC, per mouse daily for 5 days prior to ConA injection.
Cytokine assessment was performed by MILLIPLEX® Analytes (EMD Millipore Corporation, Missouri 63304 U.S.A.) based on the Luminex xMAP® technology for performing immunoassays on the surface of fluorescent-coded magnetic beads MagPlex®-C microspheres. Acquiring and analyzing the data were performed using the Luminex analyzer (MAGPIX®) software. Cytokines assessment was measured by mean fluorescence intensity (MFI).

[2] = system: immune-mediated liver injury; assay: Serum liver enzymes (ALT, AST) in ConA immune-mediated hepatitis mice; format: in vivo, C57Bl/6 mice; conditions: oral, daily for 5 days, ConA-injected mice; for AST levels: control group A 9140; for ALT levels: control group A 24040
Procedure: Male C57Bl/6 mice (12 weeks old) were obtained from Harlan Laboratories (Jerusalem, Israel) and maintained in the Animal Core of the Hadassah-Hebrew University Medical School. Mice were kept at 11-12 weeks of age and maintained in the Animal Core of the Hadassah-Hebrew University Medical School. All mice were administered standard laboratory chow and water ad libitum and kept in a 12-hour light/dark cycle. All experiments were performed in accordance with the guidelines of the Hebrew University-Hadassah Institutional Committee for Care and Use of Laboratory Animals (IACUC protocol number: MD-16-14986-3). Four groups of mice (n=4) were studied. Mice in all groups were injected with Concanavalin A (Con A, […]). Mice in control group A were treated with PBS. Mice in group B were orally administered 6 mg of GC, per mouse daily for 5 days prior to ConA injection. […] Serum aspartate aminotransferase (AST) and alanine aminotransferase (ALT) levels were determined with an automatic analyzer on all mice in all groups.

type 3 neuropathic GD = conditions: high doses, cited from earlier work
[3] = system: non-neuronopathic form of GD; conditions: patients with non-neuronopathic GD; cited from earlier work
glucosylceramidase = conditions: fibroblasts from healthy controls, Gaucher patients, heterozygous GBA mutation with and without Parkinson's disease; cited from earlier work
alpha-synuclein = conditions: neuroblastoma line engineered to overexpress alpha-synuclein; cited from earlier work

For B-glucosylceramide [GC], the “serum IL-1a” value [1] was 48 pg/mL, the IFN-γ ([1]; control group A 643) was 36 pg/mL and the “serum IL-6” value [1] was 984 pg/mL. The AST levels [2] was 2939 IU and the ALT levels [2] was 4198 IU.
In the case of Nc1c(Br)cc(Br)cc1CN[C@H]1CC[C@H](O)CC1 [Ambroxol, trans-4-(2-Amino-3,5-dibrombenzylamino)-cyclohexanol], the “IFN-γ change (in words)” value [1] is reported as “did not show any decrease”, the “serum IL-1a” value [1] is reported as 131 pg/mL and the “serum IL-6” value [1] is reported as 9504 pg/mL. For the same compound, the AST levels [2] was 8516 IU, the ALT levels [2] was 16455 IU and the “subjective-functional scores and objective scores (VEP, ocular movements)” value (type 3 neuropathic GD; 5 individuals with type 3 neuropathic GD) was “substantial clinical improvement”. For the same compound, the “GCase activity in lymphocytes” value (type 3 neuropathic GD; type 3 neuropathic GD patients) was “Increased”, the “clinical outcome of ambroxol treatment” value [3] was “disease stability” and the glucosylceramidase activity (glucosylceramidase) was “increased”. The “markers of oxidative stress” value (glucosylceramidase) was “reduced” and the alpha-synuclein levels (alpha-synuclein) was “reduces”.
